Literature values, collected in US20200397756A1, “A STABLE PHARMACEUTICAL COMPOSITION OF POORLY SOLUBLE NONSTEROIDAL ANTIANDROGENS” (KASHIV BIOSCIENCES, LLC, priority 2018, published 2020).

Legend:
[1] = water between pH 1 to 11
[2] = not given; remark: listed apart in the source

| solubility in water [1] | permeability | solubility in absolute ethanol [2] | SMILES |
| --- | --- | --- | --- |
| practically insoluble | high | sparingly soluble | CNC(=O)c1ccc(N2C(=S)N(c3cnc(C#N)c(C(F)(F)F)c3)C(=O)C23CCC3)cc1F [apalutamide, 4-(7-(6-Cyano-5-(trifluoromethyl)pyridin-3-yl)-8-oxo-6-thioxo-5,7-diazaspiro(3.4)octan-5-yl)-2-fluoro-N-methylbenzamide] |
| practically insoluble | high | sparingly soluble | CNC(=O)c1ccc(N2C(=S)N(c3ccc(C#N)c(C(F)(F)F)c3)C(=O)C2(C)C)cc1F [Enzalutamide, 4-{3-[4-cyano-3-(trifluoromethyl)phenyl]-5,5-dimethyl-4-oxo-2-sulfanylideneimidazolidin-1-yl}-2-fluoro-N-methylbenzamide] |
